Test results published in patent publication US20250382268A1, “METHODS AND COMPOSITIONS FOR SELECTIVELY INHIBITING PATHOGENIC MICROBES” (priority 2019, published 2025).
Values after ≈ are worked out from the molar mass of the structure shown. Where two headings read alike, the source gives them in different places.

Columns and labels:
[1] = tested on: Burkholderia cenocepacia; assay: microbe, parasite or virus in culture; type: cell-based
[2] = tested on: Burkholderia thailandensis; assay: microbe, parasite or virus in culture; type: cell-based
[3] = tested on: HepG2 cells; assay: Cytotoxicity MTT assay in HepG2 cells; type: cell-based; details: Homo sapiens
Procedure: Additionally, the antimicrobial compounds were analyzed for cytotoxicity. […] We utilized the standard MTT assay (Promega CellTiter 96) and GraphPad Prism 7 software to determine EC50 values for each analogue. Briefly, 20,000 HepG2 cells in 200 μl of the ATCC recommended media were seeded in each well of a 96-well plate with a moisture barrier created in the outermost wells. The cells were allowed to attach overnight at 37° C., and then observed under phase contrast microscopy for proper morphological characteristics. […] Once incubations were complete, the spectrophotometric absorbance of the samples was measured at a wavelength of 595 nm. […] For the HepaRG assay, NoSpin HepaRG™ cells (Lonza, cat #NSHPRG) were thawed and plated with 20,000 cells per well. They were allowed to attach for 4 h (optimal DME profile per Lonza's testing) before dosing following the identical protocol as above.

[4] = tested on: Staphylococcus aureus; assay: microbe, parasite or virus in culture
[5] = Toxicity study in mice, body weight over 7 days; type: in vivo; details: 6-week-old Balb/c mice
Text: The vehicle is 40% PEG300 solution in 0.9% NaCl. […] Thus, the compounds are useful for in vivo antimicrobial administration.

[6] = tested on: Francisella tularensis; assay: microbe, parasite or virus in culture; type: cell-based; details: read-out: Francisella tularensis NR-577 MIC, strain NR-577
[7] = MRSA, read-out: Staphylococcus aureus MIC, MRSA strain HM-467
[8] = MRSA, read-out: Staphylococcus aureus MIC, MRSA strain NK-41886
[9] = MRSA, read-out: Staphylococcus aureus MIC, MRSA strain NR-13533
[10] = MRSA, read-out: Staphylococcus aureus MIC, MRSA strain NR-28983
[11] = MRSA, read-out: Staphylococcus aureus MIC, MRSA strain NR-41875
[12] = MRSA, read-out: Staphylococcus aureus MIC, MRSA strain NR-41876
[13] = MRSA, read-out: Staphylococcus aureus MIC, MRSA strain NR-41877
[14] = MRSA, read-out: Staphylococcus aureus MIC, MRSA strain NR-41878
[15] = read-out: Staphylococcus aureus MIC, VSSA NR-49121

## Oc1ccc(Sc2c[nH]c3ccccc23)cc1 [Compound 156I, 4-((1H-indol-3-yl)thio)phenol]
[1]
  MBC: 150 µg/mL (≈ 622 µM)
  MIC: 50 µg/mL (≈ 207 µM)
[2]
  MBC: 100 µg/mL (≈ 414 µM)
  MIC: 50 µg/mL (≈ 207 µM)
[3]
  EC50: 12.1 µg/mL (≈ 50.1 µM)

## Brc1ccc(Sc2c[nH]c3ccccc23)cc1 [Compound 156K, 3-((4-bromophenyl)thio)-1H-indole]
[3]
  EC50: 27.6 µg/mL (≈ 90.7 µM)

## Brc1ccc(Sc2c[nH]c3ccc(Br)cc23)cc1 [Compound 172D, 5-bromo-3-((4-bromophenyl)thio)-1H-indole]
[4]; [7]
  MIC: 12.5 µg/mL (≈ 32.6 µM)
[4]; [8]
  MIC: 1.56 µg/mL (≈ 4.07 µM)
[4]; [9]
  MIC: 1.56 µg/mL (≈ 4.07 µM)
[4]; [10]
  MIC: 1.56 µg/mL (≈ 4.07 µM)
[4]; [11]
  MIC: 3.13 µg/mL (≈ 8.17 µM)
[4]; [12]
  MIC: 1.56 µg/mL (≈ 4.07 µM)
[4]; [13]
  MIC: 3.13 µg/mL (≈ 8.17 µM)
[4]; [14]
  MIC: 1.56 µg/mL (≈ 4.07 µM)
[4]; [15]
  MIC: 1.56 µg/mL (≈ 4.07 µM)

## COc1ccc2[nH]cc(Sc3ccc(Br)cc3)c2c1 [Compound 172E, 3-((4-bromophenyl)thio)-5-methoxy-1H-indole]
[3]
  EC50: 23.3 µg/mL (≈ 69.7 µM)

## Oc1ccccc1Sc1c[nH]c2ccc(Br)cc12 [Compound 174AI, 2-((5-bromo-1H-indol-3-yl)thio)phenol]
[4]; [7]
  MIC: 16 µg/mL (≈ 50 µM)
[4]; [8]
  MIC: 8 µg/mL (≈ 25 µM)
[4]; [9]
  MIC: 8 µg/mL (≈ 25 µM)
[4]; [10]
  MIC: 8 µg/mL (≈ 25 µM)
[4]; [11]
  MIC: 8 µg/mL (≈ 25 µM)
[4]; [12]
  MIC: 8 µg/mL (≈ 25 µM)
[4]; [13]
  MIC: 8 µg/mL (≈ 25 µM)
[4]; [14]
  MIC: 8 µg/mL (≈ 25 µM)
[4]; [15]
  MIC: 8 µg/mL (≈ 25 µM)
[3]
  EC50: 27.4 µg/mL (≈ 85.6 µM)
[5]
  toxicity by body weight: did not have significant toxicity

## Brc1ccc2[nH]cc(Sc3c[nH]c4ccccc34)c2c1 [Compound 174AL, 3-((1H-indol-3-yl)thio)-5-bromo-1H-indole]
[3]
  EC50: 26.1 µg/mL (≈ 76 µM)

## OCc1ccccc1Sc1c[nH]c2ccc(Br)cc12 [Compound 174AT, (2-((5-bromo-1H-indol-3-yl)thio)phenyl)methanol]
[4]; [7]
  MIC: 32 µg/mL (≈ 95.7 µM)
[4]; [8]
  MIC: 16 µg/mL (≈ 47.9 µM)
[4]; [9]
  MIC: 16 µg/mL (≈ 47.9 µM)
[4]; [10]
  MIC: 16 µg/mL (≈ 47.9 µM)
[4]; [11]
  MIC: 16 µg/mL (≈ 47.9 µM)
[4]; [12]
  MIC: 16 µg/mL (≈ 47.9 µM)
[4]; [13]
  MIC: 16 µg/mL (≈ 47.9 µM)
[4]; [14]
  MIC: 16 µg/mL (≈ 47.9 µM)
[4]; [15]
  MIC: 16 µg/mL (≈ 47.9 µM)

## Fc1ccccc1Sc1c[nH]c2ccc(Br)cc12 [Compound 174AU, 5-bromo-3-((2-fluorophenyl)thio)-1H-indole]
[4]; [7]
  MIC: 2 µg/mL (≈ 6.21 µM)
[4]; [8]
  MIC: 2 µg/mL (≈ 6.21 µM)
[4]; [9]
  MIC: 2 µg/mL (≈ 6.21 µM)
[4]; [10]
  MIC: 2 µg/mL (≈ 6.21 µM)
[4]; [11]
  MIC: 2 µg/mL (≈ 6.21 µM)
[4]; [12]
  MIC: 2 µg/mL (≈ 6.21 µM)
[4]; [13]
  MIC: 4 µg/mL (≈ 12.4 µM)
[4]; [14]
  MIC: 2 µg/mL (≈ 6.21 µM)
[4]; [15]
  MIC: 4 µg/mL (≈ 12.4 µM)
[5]
  toxicity by body weight: did not have significant toxicity

## FC(F)(F)c1ccccc1Sc1c[nH]c2ccc(Br)cc12 [Compound 174AV, 5-bromo-3-((2-(trifluoromethyl)phenyl)thio)-1H-indole]
[4]; [7]
  MIC: 2 µg/mL (≈ 5.37 µM)
[4]; [8]
  MIC: 2 µg/mL (≈ 5.37 µM)
[4]; [9]
  MIC: 1 µg/mL (≈ 2.69 µM)
[4]; [10]
  MIC: 1 µg/mL (≈ 2.69 µM)
[4]; [11]
  MIC: 1 µg/mL (≈ 2.69 µM)
[4]; [12]
  MIC: 2 µg/mL (≈ 5.37 µM)
[4]; [13]
  MIC: 2 µg/mL (≈ 5.37 µM)
[4]; [14]
  MIC: 2 µg/mL (≈ 5.37 µM)
[4]; [15]
  MIC: 2 µg/mL (≈ 5.37 µM)

## FC(F)(F)c1ccc2[nH]cc(Sc3ccccc3Br)c2c1 [Compound 174AX, 3-((2-bromophenyl)thio)-5-(trifluoromethyl)-1H-indole]
[4]; [7]
  MIC: 2 µg/mL (≈ 5.37 µM)
[4]; [8]
  MIC: 2 µg/mL (≈ 5.37 µM)
[4]; [9]
  MIC: 1 µg/mL (≈ 2.69 µM)
[4]; [10]
  MIC: 2 µg/mL (≈ 5.37 µM)
[4]; [11]
  MIC: 1 µg/mL (≈ 2.69 µM)
[4]; [12]
  MIC: 2 µg/mL (≈ 5.37 µM)
[4]; [13]
  MIC: 2 µg/mL (≈ 5.37 µM)
[4]; [14]
  MIC: 1 µg/mL (≈ 2.69 µM)
[4]; [15]
  MIC: 1 µg/mL (≈ 2.69 µM)

## Cc1ccccc1Sc1c[nH]c2ccc(Br)cc12 [Compound 174AY, 5-bromo-3-(o-tolylthio)-1H-indole]
[4]; [7]
  MIC: 4 µg/mL (≈ 12.6 µM)
[4]; [8]
  MIC: 4 µg/mL (≈ 12.6 µM)
[4]; [9]
  MIC: 4 µg/mL (≈ 12.6 µM)
[4]; [10]
  MIC: 4 µg/mL (≈ 12.6 µM)
[4]; [11]
  MIC: 4 µg/mL (≈ 12.6 µM)
[4]; [12]
  MIC: 2 µg/mL (≈ 6.28 µM)
[4]; [13]
  MIC: 2 µg/mL (≈ 6.28 µM)
[4]; [14]
  MIC: 2 µg/mL (≈ 6.28 µM)
[4]; [15]
  MIC: 2 µg/mL (≈ 6.28 µM)

## Cc1[nH]c2ccc(Br)cc2c1Sc1ccccc1Br [Compound 174AZ, 5-bromo-3-((2-bromophenyl)thio)-2-methyl-1H-indole]
[4]; [11]
  MIC: 4 µg/mL (≈ 10.1 µM)
[4]; [12]
  MIC: 2 µg/mL (≈ 5.04 µM)
[4]; [15]
  MIC: 2 µg/mL (≈ 5.04 µM)
[3]
  EC50: 25.8 µg/mL (≈ 65 µM)
[5]
  toxicity by body weight: did not have significant toxicity

## Clc1ccc2[nH]cc(Sc3ccc(Br)cc3)c2c1 [Compound 174C, 3-((4-bromophenyl)thio)-5-chloro-1H-indole]
[3]
  EC50: 25.4 µg/mL (≈ 75 µM)

## Brc1ccc(Sc2c[nH]c3cccc(Br)c23)cc1 [Compound 174D, 4-bromo-3-((4-bromophenyl)thio)-1H-indole]
[3]
  EC50: 23.2 µg/mL (≈ 60.6 µM)

## Fc1ccc2[nH]cc(Sc3ccc(Br)cc3)c2c1 [Compound 174E, 3-((4-bromophenyl)thio)-5-fluoro-1H-indole]
[3]
  EC50: 23.6 µg/mL (≈ 73.2 µM)

## Clc1ccc(Sc2c[nH]c3ccc(Br)cc23)cc1 [Compound 174J, 5-bromo-3-((4-chlorophenyl)thio)-1H-indole]
[3]
  EC50: 25.3 µg/mL (≈ 74.7 µM)

## Brc1cccc(Sc2c[nH]c3ccc(Br)cc23)c1 [Compound 174N, 5-bromo-3-((3-bromophenyl)thio)-1H-indole]
[4]; [7]
  MIC: 3.13 µg/mL (≈ 8.17 µM)
[4]; [8]
  MIC: 3.13 µg/mL (≈ 8.17 µM)
[4]; [9]
  MIC: 3.13 µg/mL (≈ 8.17 µM)
[4]; [10]
  MIC: 3.13 µg/mL (≈ 8.17 µM)
[4]; [11]
  MIC: 3.13 µg/mL (≈ 8.17 µM)
[4]; [12]
  MIC: 3.13 µg/mL (≈ 8.17 µM)
[4]; [13]
  MIC: 3.13 µg/mL (≈ 8.17 µM)
[4]; [14]
  MIC: 3.13 µg/mL (≈ 8.17 µM)
[4]; [15]
  MIC: 1.56 µg/mL (≈ 4.07 µM)
[3]
  EC50: 29.5 µg/mL (≈ 77 µM)

## Fc1ccc(Sc2c[nH]c3ccc(Br)cc23)cc1 [Compound 174P, 5-bromo-3-((4-fluorophenyl)thio)-1H-indole]
[3]
  EC50: 38.3 µg/mL (≈ 119 µM)

## Clc1ccc(Sc2c[nH]c3ccc(Br)cc23)c(Cl)c1 [Compound 174V, 5-bromo-3-((2,4-dichlorophenyl)thio)-1H-indole]
[3]
  EC50: 24.8 µg/mL (≈ 66.5 µM)

## Nc1cc(Br)ccc1Sc1c[nH]c2ccc(Br)cc12 [Compound 174X, 5-bromo-2-((5-bromo-1H-indol-3-yl)thio)aniline]
[3]
  EC50: 30.2 µg/mL (≈ 75.9 µM)

## Oc1ccccc1Sc1c[nH]c2ccc(C(F)(F)F)cc12 [Compound 177A, 2-((5-(trifluoromethyl)-1H-indol-3-yl)thio)phenol]
[3]
  EC50: 24.1 µg/mL (≈ 77.9 µM)

## Oc1ccc(Sc2c[nH]c3ccc(C(F)(F)F)cc23)cc1 [Compound 177B, 4-((5-(trifluoromethyl)-1H-indol-3-yl)thio)phenol]
[3]
  EC50: 27.7 µg/mL (≈ 89.6 µM)

## Nc1ccccc1Sc1c[nH]c2ccc(C(F)(F)F)cc12 [Compound 177C, 2-((5-(trifluoromethyl)-1H-indol-3-yl)thio)aniline]
[3]
  EC50: 48.2 µg/mL (≈ 156 µM)

## Fc1ccccc1Sc1c[nH]c2ccc(C(F)(F)F)cc12 [Compound 177D, 3-((2-fluorophenyl)thio)-5-(trifluoromethyl)-1H-indole]
[3]
  EC50: 27.1 µg/mL (≈ 87.1 µM)

## Fc1ccc2[nH]cc(Sc3ccccc3Br)c2c1 [Compound 177E, 3-((2-bromophenyl)thio)-5-fluoro-1H-indole]
[3]
  EC50: 31.6 µg/mL (≈ 98.1 µM)

## FC(F)(F)c1ccc2[nH]cc(Sc3ccccc3C(F)(F)F)c2c1 [Compound 177F, 5-(trifluoromethyl)-3-((2-(trifluoromethyl)phenyl)thio)-1H-indole]
[3]
  EC50: 29.8 µg/mL (≈ 82.5 µM)

## CCc1ccccc1Sc1c[nH]c2ccc(C(F)(F)F)cc12 [Compound 177G, 3-((2-ethylphenyl)thio)-5-(trifluoromethyl)-1H-indole]
[3]
  EC50: 29.5 µg/mL (≈ 91.8 µM)

## OCc1[nH]c2ccc(Br)cc2c1Sc1ccccc1Br [Compound 177H, (5-bromo-3-((2-bromophenyl)thio)-1H-indol-2-yl)methanol]
[3]
  EC50: 31.8 µg/mL (≈ 77 µM)

## CCc1ccccc1Sc1c(CO)[nH]c2ccc(C(F)(F)F)cc12 [Compound 177I, (3-((2-ethylphenyl)thio)-5-(trifluoromethyl)-1H-indol-2-yl)methanol]
[3]
  EC50: 31.3 µg/mL (≈ 89.1 µM)

## c1ccc(Oc2c[nH]c3ccccc23)cc1 [Compound 925C, 3-phenoxy-1H-indole]
[6]
  MIC: 8 µg/mL (≈ 38.2 µM)
